Laboratory results published in US20230293432A1, “POLYMERIC MICELLES COMPRISING GLUCURONIDE-PRODRUGS” (Rheinisch-Westfälische Technische Hochschule (RWTH), priority 2020, published 2023).

Test system: breast cancer 4T1 cells
Test: In vitro calreticulin (CRT) translocation by flow cytometry
Assay type: cell-based
Conditions: anti-CRT antibody staining, vs untreated control, FIG. 6A
Experimental: In a further experiment the ability of doxorubicin and doxorubicin double spacer prodrug and doxorubicin double spacer prodrug in polymeric micelles to induce immunogenicity of tumor cells was assessed in vitro. As one of the most studied phenotypes of immunogenic cell death, calreticulin (CRT) […] to outer surface of cancer cells is able to attract antigen presenting cells to endocytose apoptotic cancer cells. CRT translocation was measured by flow cryometry. To assess CRT translocation induced by the formulations, they were added to breast cancer 4T1 cells which were cultured overnight at 37° C. in RPMI 1640 medium containing 10% FBS and 1% penicillin. After incubation, the cells were washed with PBS and then detached. The CRT translocated to the outer surface of the cells was labeled with anti-CRT antibodies.

COc1cccc2c1C(=O)c1c(O)c3c(c(O)c1C2=O)C[C@@](O)(C(=O)CO)C[C@@H]3O[C@H]1C[C@H](N)[C@H](O)[C@H](C)O1 [DOX, doxorubicin]
signal of CRT in flow cytometry plots: higher signal of CRT compared to untreated control
